Format in all cases: cell-based, Human
Test [1] deals with T47D (Ductal carcinoma of breast). In words: In vitro cytotoxicity, microculture tetrazolium (MTT) assay, T47D. Particulars: 48 h with compound, further 48 h, Table 1. The essentials: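 Adherent cells (1,500-4,000/well) were exposed to compound in 1:3 dilutions from 100 μM to 1.7 nM, in quadruplicate, for 48 h at 37° C, followed by 48 h in fresh medium. MTT formazan was read at 570 nm, and data were fitted by four-parameter logistic on a 0-100% survival scale.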

Another test has as its system VLB/OV3. The test is described as follows: Resistance ratio of SKVLB over SKOV3 cytotoxicity (VLB/OV3). Particulars: ratio SKVLB to SKOV3; Table 1; 2880 min. On the procedure:
The microculture tetrazolium assay was used to test in vitro cytotoxicity. This assay is described in Plumb, J. A. et al., 1989 Cancer Research 49, 4435-4440, which is herein incorporated by reference. The cytotoxicity of compounds towards tumor cells is measured in vitro using the assay. This assay method is based upon the ability of live, but not dead cells to reduce the yellow water soluble dye 3-(4,5-dimethylthiazol-2-yl)-2,5-diphenyltetrazolium bromide (MTT) to its water insoluble purple formazan product.
SKOV3 (Ovarian adenocarcinoma)--provided by Dr. V. Ling, Ontario Cancer Institute.
SKVLB (Ovarian; multidrug resistant)--Dr. V. Ling, Ontario Cancer Institute.
For each assay, doxorubicin is included as an inter-assay standard. This allows us to monitor the behaviour of the assay in general, and in particular, to check that the SKVLB line has maintained its resistant phenotype.
Cells are plated out in 100 μl of culture medium in the microtiter plates at a density of around 1,500-4,000 cells per well. The plates are incubated overnight to allow the cells to become adherent after which the test compound is added (100 μl of appropriate dilution per well). The cells are incubated with test compound at 37° C. for 48 h after which the compound is replaced with fresh medium. After a further 48 h incubation at 37° C., 50 μl of MTT solution (2 mg/ml) is added to each well. The plates are incubated in the dark for 4 h at 37° C. after which the medium is removed. The MTT formazan product is extracted from the cells by the addition of 200 μl DMSO followed by 50 μl of Sorensen's buffer. The plates are shaken briefly and the absorbance at 570 nm is read using a Molecular Devices UV max plate reader. Curves are fit to the MTT assay data using a four parameter logistic equation, and the data are normalized to fit a 0% to 100% survival scale.

Test [2] concerns SKVLB (Ovarian; multidrug resistant). The test is described as follows: In vitro cytotoxicity, microculture tetrazolium (MTT) assay, SKVLB. Particulars: for IC50: SKVLB multidrug resistant ovarian, 48 h with compound, further 48 h, MTT, Table 1. The essentials:
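Multidrug-resistant SKVLB ovarian cells, 1,500–4,000 per well, exposed to compound (1:3 dilutions, 100 μM to 1.7 nM, quadruplicate) for 48 h at 37 °C, then 48 h in fresh medium. Viability by MTT reduction, formazan read at 570 nm; four-parameter logistic fit on a 0–100% survival scale.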

For test [3], the system named is HT 29 (Colon adenocarcinoma). The test is described as follows: In vitro cytotoxicity, microculture tetrazolium (MTT) assay, HT29. To be noted: further 48 h, Table 1. The essentials:
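HT29 cells exposed to compound (1:3 series, 100 μM to 1.7 nM, quadruplicate) for 48 h at 37 °C, then 48 h in fresh medium. Viability by MTT reduction, formazan absorbance at 570 nm; four-parameter logistic fit on 0-100% survival scale.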

For another test, the system named is Lox (Melanoma). In words: In vitro cytotoxicity, microculture tetrazolium (MTT) assay, LOX. To be noted: 48 h with compound, further 48 h, Table 1. An outline of the steps:
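LOX melanoma cells, 1,500–4,000 per well, exposed to compound (1:3 dilutions, 100 μM to 1.7 nM) for 48 h at 37° C., then 48 h in fresh medium. MTT reduction read at 570 nm; four-parameter logistic fit normalized to 0–100% survival.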

The test system of test [4] is SKOV3 (Ovarian adenocarcinoma). The test is described as follows: In vitro cytotoxicity, microculture tetrazolium (MTT) assay, SKOV3. To be noted: for IC50: SKOV3 ovarian adenocarcinoma, 48 h with compound, further 48 h, MTT, Table 1. An outline of the steps: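 Cells plated overnight, then exposed to compound (1:3 dilutions, 100 μM to 1.7 nM, quadruplicate) 48 h at 37 °C, followed by 48 h in fresh medium. MTT 4 h, formazan extracted in DMSO/Sorensen's buffer pH 10.5, A570; four-parameter logistic fit on 0–100% survival scale.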

Setting [5] is: Homo sapiens, HT-29, 48 h with compound.

Where a name gives a salt, the structure may show the parent alone. Some results are limits rather than exact numbers.

On to “(1S, 2'S, 3R) and (1R, 2'S, 3S)-methyl-(1-[O-prolinol]-3,4,5,12-tetrahydronaphtho-[2,3-C]pyran-3-yl) ketone hydrochloride salt [BCH1658]”, for which the IC50 was found to be 0.494 µM in test [1]; 1.47 µM in test [2]; 0.661 µM in test [3] (48 h with compound); 0.316 µM with Lox (Melanoma); 0.233 µM in test [4]. Further, the VLB/OV3 in the test on VLB/OV3 worked out at 6.31.

Regarding `COC1OC(C(=O)NCCCN(C)C)=CC2=C1C(=O)c1ccccc1C2=O` (stereo not drawn) [BCH2051, 1-Methoxy-5,10-dioxo-5,10-dihydro-1H-naphtho[2,3-c]pyran-3-[N-(3-dimethylamino-propyl)carboxamide] hydrochloride monohydrate], the concentration for half-maximal inhibition (IC50) in test [1] (Homo sapiens) fell in the range of 0.0419 to 0.0685 µM; in test [2] (Homo sapiens), 0.0675 to 0.403 µM; in test [3] (setting [5]), 0.091 to 0.134 µM; with Lox (Melanoma) (Homo sapiens), 0.0167 to 0.03 µM; in test [4] (Homo sapiens, SK-OV-3), 0.0073 to 0.029 µM. In the test with VLB/OV3, the VLB/OV3 is recorded as 9.3-14.14. For the same molecule, the “multidrug resistance / effect in multidrug resistant cell line SKVLB” value in test [2] (SKVLB cell line) is “significantly avoiding multidrug resistance”. In addition, the “in vitro antitumor potency” value in test [4] (in vitro, Tables 1 and 2) is “intense in vitro antitumor potency”.

Regarding `CO[C@@H]1O[C@@H](C(=O)Nc2ccccc2)CC2=C1C(=O)c1ccccc1C2=O` (relative stereo) [BCH2041, (1,3-trans)-anline-(1-methoxy-5,10-dioxo-3,4,5,10-tetrahydro-1H-naphtho-[2,3-c]-pyran)-3-carboxamide], the IC50 in test [1] (Homo sapiens) is 5.62 µM; in test [2] (Homo sapiens), 10 µM; in test [3] (setting [5]) it was 1.9 µM; with Lox (Melanoma) (Homo sapiens) it was 1.9 µM; in test [4] (Homo sapiens, SK-OV-3), 2.14 µM. Moreover, the VLB/OV3 in the test on VLB/OV3 turned out to be 5.

As for `CC[C@@H]1CC2=C(C(=O)c3ccccc3C2=O)[C@@H](O[C@H]2C[C@H](NC(=O)C(F)(F)F)[C@H](O)[C@H](C)O2)O1` [BCH2026, (1'S, 1R, 3R)-5,10-dioxo-3-ethyl-1-(2',3',6'-trideoxy-3'-trifluoroacetamido-L-lyxohexopyranose)-3,4,5,10-tetrahydro-1H-naphtho-[2,3-c]pyran], the concentration for half-maximal inhibition (IC50) in test [1] (Homo sapiens) was 31.4 µM; in test [2] (Homo sapiens), more than 100 µM; in test [3] (setting [5]) it was 22 µM; in the test with Lox (Melanoma) (Homo sapiens), 2.12 µM; in test [4] (Homo sapiens, SK-OV-3) it was 15 µM. Moreover, the VLB/OV3 in the test with VLB/OV3 is given as more than 7.

Regarding `C=CC[C@@H]1CC2=C(C(=O)c3ccccc3C2=O)[C@@H](O[C@H]2C[C@H](NC(=O)C(F)(F)F)[C@H](O)[C@H](C)O2)O1` (mixture of isomers) [BCH2031, (1'S,1S,3S) and (1'S,1-R,3-R)-3-([2',3',6'-trideoxy-3'-trifluoroacetamido-4'-hydroxy-L-lyhohexopyranose]-5,10-dioxo-3,4,5,10-tetrahydronaphtho-[2,3-c]-pyran-3-yl)-propene], the IC50 in test [1] is 16 µM; in test [3] (48 h with compound), 8.5 µM; with Lox (Melanoma), 2.8 µM; in test [4] it was 6 µM. Also, the VLB/OV3 in the test on VLB/OV3 was 3.

On to `CC(=O)[C@@H]1CC2=C(C(=O)c3ccccc3C2=O)[C@@H](O[C@H]2C[C@H](NC(=O)C(F)(F)F)[C@H](O)[C@H](C)O2)O1` [BCH1184, (1'S,1R,3S)-Methyl (5,10-dioxo-1-(2',3',6'-trideoxy-3'-trifluoroacetamido-4'-hydroxy-L-lyxohexopyranose)-3,4,5,10-tetrahydronaphtho [2,3-C]pyran-3-yl) ketone], for which the half-inhibitory concentration (IC50) in test [1] (Homo sapiens) fell in the range of 0.284 to 0.53 µM; in test [2] (Homo sapiens), 0.0536 to 0.3 µM; in test [3] (setting [5]) it was 0.0023 to 0.0161 µM; in the test on Lox (Melanoma) (Homo sapiens), 0.0186 to 0.228 µM; in test [4] (Homo sapiens, SK-OV-3), 0.005 to 0.0631 µM. Also, in the test on VLB/OV3, the VLB/OV3 is on record as 4.75-22.34.

`CC(=O)C1CC2=C(C(=O)c3ccccc3C2=O)C(OC[C@@H]2CCCN2C(=O)OC(C)(C)C)O1` (mixture of isomers) [BCH2067, (1S, 2'S, 3R) and (1R, 2'S, 3S)-methyl-(1-[O-N-BOC-prolinol]-5,10-dioxo-3,4,5,10-tetrahydro-1-H-naphtho[2,3-C]pyran-3-yl) ketone]: the IC50 in test [1] (Homo sapiens) was found to be 0.54 µM; in test [3] (setting [5]), 0.323 µM; with Lox (Melanoma) (Homo sapiens) it was 1.1 µM; in test [4] (Homo sapiens, SK-OV-3), 1.2 µM. Besides, the VLB/OV3 with VLB/OV3 worked out at 2.
